# Data published in article PMC10899790, “A bromodomain-independent mechanism of gene regulation by the BET inhibitor JQ1: direct activation of nuclear receptor PXR” (Nucleic Acids Research, 2023).
# “Also recorded” adds a separate entry of the source.
# Key:
# human PXR = target: T1, human PXR (Homo sapiens, UniProt O75469); assay: PXR transactivation assay (CYP3A4-luciferase reporter)
# T1 sequence (O75469 1-434): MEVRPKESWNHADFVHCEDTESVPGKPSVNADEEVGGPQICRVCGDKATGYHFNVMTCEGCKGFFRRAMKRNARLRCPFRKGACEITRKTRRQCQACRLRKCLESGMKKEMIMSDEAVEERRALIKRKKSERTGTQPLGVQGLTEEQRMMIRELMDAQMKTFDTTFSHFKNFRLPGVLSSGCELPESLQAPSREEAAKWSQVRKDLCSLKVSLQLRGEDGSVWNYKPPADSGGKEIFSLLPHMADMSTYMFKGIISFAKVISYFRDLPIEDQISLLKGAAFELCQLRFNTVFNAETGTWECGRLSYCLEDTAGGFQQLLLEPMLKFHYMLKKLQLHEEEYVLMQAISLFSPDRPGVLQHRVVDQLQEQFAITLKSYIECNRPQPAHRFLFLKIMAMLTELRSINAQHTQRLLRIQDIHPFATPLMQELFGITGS
# Procedure: Assays were performed similarly as previously described with minor modifications ([30–32]). HepG2 cells (7.5 × 10^5/well) were plated in six-well tissue culture-treated plates. The following day, cells were co-transfected with pGL3-CYP3A4-luc (2 μg/well), pRL-CMV (200 ng/well) and 100 ng/well of either empty vector (pcDNA3), pcDNA3-FLAG-PXR, pCMV6-mPXR or pGL4.53-PGK-PXR using Lipofectamine 3000 (Thermo Fisher Scientific). Twenty-four hours after transfection, cells were trypsinized and suspended in phenol red-free DMEM (Thermo Fisher Scientific) supplemented with 5% charcoal/dextran-treated FBS (HyClone), and 1 × 10^4 cells/well in 25 μl media were added to white 384-well plates. […] After 24 h, the Dual-Glo Luciferase Assay System (Promega) and EnVision microplate reader (PerkinElmer) were used to measure firefly and Renilla luciferase activities. CMV-driven Renilla luciferase was used as an indicator of general transcriptional modulation by the test compounds and is plotted as fold change (FC) relative to DMSO controls. Assays utilizing pGL4.54[luc2/TK], pGL4.53[luc2/PGK], or pGL4.13[luc2/SV40] were similarly performed and normalized. For the PXR-responsive CYP3A4-luciferase reporter, the measured relative light units (RLU) were normalized for each well using equation (1),
# RLUT0901317 represents the measured RLU from wells containing 1 μM T0901317. For mPXR assays, 5 μM PCN was used in place of T0901317.
# HepG2 cells = assay: Cytotoxicity assay (CellTiter-Glo); format: cell-based, human; details: HepG2, 24 h
# Procedure: HepG2 cells (1 × 10^4/well in 25 μl phenol red-free DMEM supplemented with 5% charcoal/dextran-treated FBS) were plated and treated as in the transactivation assays. After 24 h compound treatment, the CellTiter-Glo Luminescent Cell Viability Assay (Promega) and an EnVision microplate reader were used to assess cytotoxicity. DMSO wells with cells served as negative controls, and wells without cells served as positive controls. The averaged luminescence signal of the wells without cells was subtracted from the luminescence signals of all other wells, and the background subtracted values were normalized to DMSO-treated wells containing cells to obtain percent cell viability.
# PXR LBD [1] = target: T2, PXR LBD (Homo sapiens, UniProt O75469); assay: TR-FRET PXR LBD SRC-1 recruitment assay; format: biochemical; details: percent relative to 10 μM T0901317 and DMSO
# T2 construct: GST-PXR LBD protein (cat. # PV4841) were purchased from Thermo Fisher Scientific; purchased Thermo Fisher Scientific PV4841
# T2 sequence (O75469 146-433 limits assumed): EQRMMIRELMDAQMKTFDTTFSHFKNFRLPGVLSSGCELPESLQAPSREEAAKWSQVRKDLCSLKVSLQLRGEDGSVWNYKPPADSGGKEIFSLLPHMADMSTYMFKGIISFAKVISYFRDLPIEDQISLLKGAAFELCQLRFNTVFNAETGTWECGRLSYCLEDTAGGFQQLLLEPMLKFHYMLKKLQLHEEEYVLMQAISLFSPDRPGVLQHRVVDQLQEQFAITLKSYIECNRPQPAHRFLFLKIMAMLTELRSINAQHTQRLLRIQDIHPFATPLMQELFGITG
# Procedure: The TR-FRET PXR LBD SRC-1 recruitment assay measures PXR LBD interaction with a fluorescently labeled SRC-1 peptide (Supplementary Figure S1) and was performed as previously described with minor modifications ([23]). […] FAM-SRC-1 peptide solution (15 μl/well, 133.3 nM in assay buffer) was dispensed into 384-well black low-volume assay plates. An Echo 650 Acoustic Liquid Handler then dispensed 60 nl/well of compound stocks or DMSO. […] The plates were shaken at 900 rpm (80 × g) on an IKA MTS 2/4 digital microtiter shaker for 1 min then centrifuged at 1000 rpm (201 × g) for 30 s in an Eppendorf 5810 centrifuge equipped with an A-4-62 swing-bucket rotor. The plates were protected from light exposure and incubated for 1 h at room temperature (RT). After incubation, the TR-FRET signal from each well was collected with a PHERAstar FS Microplate Reader (BMG Labtech). The measured relative fluorescence units (RFU) were normalized for each well using equation (2),
# PXR LBD [2] = target: T2, PXR LBD; assay: TR-FRET PXR LBD NCoR recruitment and release assays; format: biochemical; details: TR-FRET in the presence of 1 μM SPA70
# Procedure: The TR-FRET PXR LBD NCoR recruitment assay was similarly performed, but with 500 nM FAM-NCoR peptide. Data were normalized using equations (2) and (3) with 10 μM SPA70 in place of T0901317 as the control. For the NCoR release assay, all wells contained 1 μM SPA70 to induce PXR LBD interaction with NCoR, and dose responses of agonists were used to disrupt the PXR LBD/SPA70/NCoR complex. In the release assay, 1 μM SPA70 alone served as the 100% control, and DMSO alone served as the 0% control. NCoR release assay wells contained 0.4% DMSO due to the two-compound addition.
# PXR LBD [3] = target: T2, PXR LBD; assay: TR-FRET PXR LBD ligand binding assay; details: TR-FRET competition with BODIPY FL vindoline
# Procedure: The TR-FRET PXR LBD ligand binding assay measures binding of PXR ligands by competition with a fluorescently labeled ligand (BODIPY FL vindoline) (Supplementary Figure S3) and was performed as previously described with minor modifications ([24]). […] BODIPY FL vindoline (15 μl/well, 133.3 nM in assay buffer) was dispensed into 384-well low-volume black assay plates. An Echo 650 Acoustic Liquid Handler then dispensed 60 nl/well of compound stocks or DMSO.
compound,measurement,setting,value
"Cc1sc2c(c1C)C(c1ccc(Cl)cc1)=N[C@@H](CC(=O)OC(C)(C)C)c1nnc(C)n1-2 [JQ1, (+)-JQ1]",activation of CYP3A4-luciferase reporter with PXR expressed from a PGK promoter,"human PXR; HepG2, 24 h, PGK-driven PXR",retained activation of the CYP3A4-luciferase reporter
same,activation of PXR-responsive CYP3A4-luciferase reporter,human PXR; human,activated the CYP3A4-luciferase reporter with potency comparable to that of the prototypical PXR agonist rifampicin (Figure 2A) but with slightly reduced efficacy
same,cytotoxicity (cell viability),HepG2 cells,exhibited cytotoxicity at the concentrations required to activate the CYP3A4-luciferase reporter
same,recruitment of SRC-1 peptide to purified PXR LBD,PXR LBD [1],induced SRC-1 recruitment; also recorded: JQ1 > birabresib > CPI-203
same,inhibition of SPA70-mediated NCoR recruitment (NCoR release),PXR LBD [2],inhibited SPA70-mediated NCoR recruitment
same,binding to purified PXR LBD (binding potency),PXR LBD [3],comparable to rifampicin in binding potencies; also recorded: JQ1 > birabresib > CPI-203
